Measurements published in patent US20140005163A1 (NOVARTIS AG, priority 2010, published 2014).

Experiments:
PI3K gamma = target: T1, PI3K gamma (Homo sapiens, UniProt P48736); experiment: PI3K gamma kinase assay (Kinase-Glo luminescence); type: biochemical
T1 construct: His tag (C); made in house; host or cells: baculovirus (pVL1393); Tn5 or TiniPro insect cells; construct from Roger Williams lab, MRC LMB
Procedure, shortened: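 PI3Kγ (150 nM) reaction run 120 min at room temperature with phosphatidylinositol substrate (10 μg/mL) and ATP (1 μM) in Tris pH 7.5 buffer containing MgCl2, NaCl, CHAPS and DTT. Remaining ATP detected by Kinase-Glo luminescence; 8 concentrations per compound, IC50 from 4-parameter curve fitting.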

[1] = tested on: S6 Ribosomal Protein phosphorylation Ser235/236 in TSC1 null mouse embryo fibroblast (MEF) cells; experiment: Reverse protein array assay, S6 Ribosomal Protein phosphorylation Ser235/236 in TSC1 null MEF cells; type: cell-based; conditions: 1 h, pS6 ribosomal protein Ser235/236, 60 minutes incubation, read-out: p-S6 IC50
Procedure, shortened: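 TSC1−/− MEFs, seeded and held ≥20 h at 37 °C/5% CO2, were exposed to 8-step serial compound dilutions (0.02% DMSO final; DMSO vehicle control) for 60 min at 37 °C. Cells were then lysed on ice for 10 min and lysates spotted onto reverse protein array chips.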

[2] = Cellular CaCo2 permeability assay from apical to basal (A-B); type: in vitro ADME; conditions: human, Caco-2, read-out: Pe A-B (permeability)
Description: The permeability in 10^−6 cm/s of compounds of formula (I) have been confirmed for selected example using a cellular CaCo2 permeability assay from apical to basal (A-B): […]

T1 sequence (P48736 144-1102 limits assumed): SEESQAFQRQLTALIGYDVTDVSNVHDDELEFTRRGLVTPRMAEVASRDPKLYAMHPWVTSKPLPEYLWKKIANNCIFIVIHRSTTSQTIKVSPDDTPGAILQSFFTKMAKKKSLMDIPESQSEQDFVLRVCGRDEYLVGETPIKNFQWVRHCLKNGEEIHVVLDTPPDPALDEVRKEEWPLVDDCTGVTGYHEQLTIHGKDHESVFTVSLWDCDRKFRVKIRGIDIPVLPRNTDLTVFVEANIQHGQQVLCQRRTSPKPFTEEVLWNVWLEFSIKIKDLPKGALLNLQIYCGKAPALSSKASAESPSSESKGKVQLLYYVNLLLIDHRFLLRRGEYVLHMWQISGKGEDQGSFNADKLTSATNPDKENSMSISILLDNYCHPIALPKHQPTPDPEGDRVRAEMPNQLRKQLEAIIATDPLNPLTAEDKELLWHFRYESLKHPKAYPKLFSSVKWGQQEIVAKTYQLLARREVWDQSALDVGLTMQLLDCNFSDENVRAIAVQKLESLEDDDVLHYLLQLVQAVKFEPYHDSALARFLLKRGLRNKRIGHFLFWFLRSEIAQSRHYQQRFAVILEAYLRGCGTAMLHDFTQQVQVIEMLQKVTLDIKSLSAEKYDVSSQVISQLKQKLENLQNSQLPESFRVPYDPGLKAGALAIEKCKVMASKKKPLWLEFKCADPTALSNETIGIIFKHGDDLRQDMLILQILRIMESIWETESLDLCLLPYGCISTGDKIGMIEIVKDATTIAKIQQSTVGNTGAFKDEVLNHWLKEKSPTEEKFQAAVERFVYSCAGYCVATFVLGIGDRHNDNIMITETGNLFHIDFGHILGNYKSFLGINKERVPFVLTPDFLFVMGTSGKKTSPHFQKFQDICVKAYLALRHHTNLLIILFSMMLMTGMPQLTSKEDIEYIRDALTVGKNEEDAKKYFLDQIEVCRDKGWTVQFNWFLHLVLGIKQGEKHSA

For `COc1ccc(-c2ccc3ncc4c(c3c2)n(-c2cn(C)nc2C)c(=O)n4C)cn1` [Example 2.5, 1-(1,3-Dimethyl-1H-pyrazol-4-yl)-8-(6-methoxy-pyridin-3-yl)-3-methyl-1,3-dihydro-imidazo[4,5-c]quinolin-2-one], the IC50 (PI3K gamma) was 390 nM, the IC50 [1] was 10 nM and the Papp A→B [2] was 38.4 ×10⁻⁶ cm/s.

`CCn1cc(-n2c(=O)n(C)c3cnc4ccc(-c5ccc(OC)nc5)cc4c32)c(C)n1` [Example 2.7, 1-(1-Ethyl-3-methyl-1H-pyrazol-4-yl)-8-(6-methoxy-pyridin-3-yl)-3-methyl-1,3-dihydro-imidazo[4,5-c]quinolin-2-one] gave an IC50 (PI3K gamma) of 217 nM, an IC50 [1] of 6 nM and a Papp A→B [2] of 21.5 ×10⁻⁶ cm/s.

`CCOc1ccc(-c2ccc3ncc4c(c3c2)n(-c2c(C)nn(C)c2C)c(=O)n4C)cn1` [Example 3.3, 8-(6-Ethoxy-pyridin-3-yl)-3-methyl-1-(1,3,5-trimethyl-1H-pyrazol-4-yl)-1,3-dihydro-imidazo[4,5-c]quinolin-2-one] gave an IC50 (PI3K gamma) of 309 nM, an IC50 [1] of 255 nM and a Papp A→B [2] of 21 ×10⁻⁶ cm/s.

With `CCOc1ccc(-c2ccc3ncc4c(c3c2)n(-c2cn(C(C)C)nc2C)c(=O)n4C)cn1` [Example 3.7, 8-(6-Ethoxy-pyridin-3-yl)-1-(1-isopropyl-3-methyl-1H-pyrazol-4-yl)-3-methyl-1,3-dihydro-imidazo[4,5-c]quinolin-2-one] the IC50 (PI3K gamma) was 303 nM, the IC50 [1] was 30 nM and the Papp A→B [2] was 27.8 ×10⁻⁶ cm/s.

With `Cc1nn(C)cc1-n1c(=O)n(C)c2cnc3ccc(-c4ccc(N(C)C)nc4)cc3c21` [Example 4.5, 8-(6-Dimethylamino-pyridin-3-yl)-1-(1,3-dimethyl-1H-pyrazol-4-yl)-3-methyl-1,3-dihydro-imidazo[4,5-c]quinolin-2-one] the IC50 (PI3K gamma) was 292 nM, the IC50 [1] was 13 nM and the Papp A→B [2] was 16.1 ×10⁻⁶ cm/s.
